Results taken from PubChem BioAssay AID256 (DTP/NCI, 2004).
Several values for one entry are separate records, joined by “and”; a condition that tells them apart may be missing. Equal entries are not always repeated. Toxic doses and inconclusive results are not listed.

System: CD2F1 mice, L1210 leukemia ip, survival T/C
Assay: NCI In Vivo Anticancer Drug Screen. Data for tumor model L1210 Leukemia (intraperitoneal) in CD2F1 (CDF1) mice
Conditions: higher = longer survival
How it was run: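 Implant tumor; dose compound or vehicle; measure endpoint in both groups; report treated divided by control.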

[1] = endpoint: mean survival time, dose: 12.5 mg/kg/injection, schedule: Q04DX003 (ip), vehicle: saline with Tween-80
[2] = endpoint: mean survival time, dose: 25.0 mg/kg/injection, schedule: Q04DX003 (ip), vehicle: saline with Tween-80
[3] = endpoint: mean survival time, dose: 100.0 mg/kg/injection, schedule: Q04DX003 (ip), vehicle: saline
[4] = endpoint: mean survival time, dose: 100.0 mg/kg/injection, schedule: Q04DX002 (ip), vehicle: saline with Tween-80
[5] = endpoint: mean survival time, dose: 200.0 mg/kg/injection, schedule: Q04DX002 (ip), vehicle: saline with Tween-80
[6] = endpoint: mean survival time, dose: 400.0 mg/kg/injection, schedule: Q04DX002 (ip), vehicle: saline with Tween-80
[7] = endpoint: mean survival time, dose: 100.0 mg/kg/injection, schedule: Q04DX003 (ip), vehicle: saline with Tween-80
[8] = endpoint: mean survival time, dose: 200.0 mg/kg/injection, schedule: Q04DX003 (ip), vehicle: saline with Tween-80
[9] = endpoint: mean survival time, dose: 400.0 mg/kg/injection, schedule: Q04DX003 (ip), vehicle: saline with Tween-80
[10] = endpoint: mean survival time, dose: 50.0 mg/kg/injection, schedule: Q01DX009 (ip), vehicle: saline with Tween-80
[11] = endpoint: mean survival time, dose: 100.0 mg/kg/injection, schedule: Q01DX009 (ip), vehicle: saline with Tween-80
[12] = endpoint: mean survival time, dose: 100.0 mg/kg/injection, schedule: Q04DX003 (ip), vehicle: saline sonified
[13] = endpoint: mean survival time, dose: 200.0 mg/kg/injection, schedule: Q01DX009 (ip), vehicle: saline with Tween-80

SMILES: COc1ccc2c(c1OC(C)=O)-c1cc(OC(C)=O)cc3c1C(C2)NCC3 (stereo not given)
- T/C (endpoint: mean survival time, dose: 3.13 mg/kg/injection, schedule: Q04DX003 (ip), vehicle: saline with Tween-80): 96 % of control
- T/C (endpoint: mean survival time, dose: 6.25 mg/kg/injection, schedule: Q04DX003 (ip), vehicle: saline with Tween-80): 94 % of control
- T/C [1]: 94 % of control
- T/C [2]: 94 % of control

SMILES: CN(C)CCSCC(=O)N1c2ccccc2Sc2ccccc21
- T/C [3]: 96 % of control

SMILES: Cc1ccc(S(=O)(=O)N(C)c2cc([N+](=O)[O-])ccc2Br)cc1
- T/C [4]: 95 % of control
- T/C [5]: 103 % of control
- T/C [6]: 114 % of control

SMILES: CC(=O)OC1CCC2(C)C(=CC=C3C2CCC2(C)C3CC3OC4(CCC(C)CO4)C(C)C32)C1 (stereo not given)
- T/C (endpoint: mean survival time, dose: 50.0 mg/kg/injection, schedule: Q01DX009 (ip), vehicle: Klucel (hydroxypropylcellulose) (HPC)): 92 % of control
- T/C (endpoint: mean survival time, dose: 100.0 mg/kg/injection, schedule: Q01DX009 (ip), vehicle: Klucel (hydroxypropylcellulose) (HPC)): 97 % of control
- T/C (endpoint: mean survival time, dose: 200.0 mg/kg/injection, schedule: Q01DX009 (ip), vehicle: Klucel (hydroxypropylcellulose) (HPC)): 94 % of control

SMILES: NC(=O)CSCC(N)=O
- T/C [7]: 94 % of control
- T/C [8]: 96 % of control
- T/C [9]: 90 % of control

SMILES: CC(O)Cc1c(Cc2ccccc2)nc(-c2ccccc2)[nH]c1=O (stereo not given)
- T/C [10]: 91 % of control
- T/C [11]: 90 % of control
- T/C [7]: 95 % of control
- T/C [8]: 90 % of control
- T/C [9]: 88 % of control

SMILES: CC(=O)Nc1cc(C/C(N)=N/O)cc(NC(C)=O)c1
- T/C [7]: 100 % of control
- T/C [8]: 103 % of control
- T/C [9]: 111 % of control

SMILES: ClC1=NC(Cl)C(Cl)=N/C1=N\c1ncn[nH]1 (stereo not given)
- T/C [2]: 96 % of control
- T/C (endpoint: mean survival time, dose: 50.0 mg/kg/injection, schedule: Q04DX003 (ip), vehicle: saline with Tween-80): 95 % of control
- T/C [12]: 93 % of control

SMILES: N=c1c(C(=O)OCc2ccccc2)ncc(CCl)n1O
- T/C (endpoint: median survival time, dose: 25.0 mg/kg/injection, schedule: Q01DX009 (ip), vehicle: saline with Tween-80): 100 % of control
- T/C (endpoint: median survival time, dose: 50.0 mg/kg/injection, schedule: Q01DX009 (ip), vehicle: saline with Tween-80): 101 % of control and 102 % of control
- T/C (endpoint: median survival time, dose: 100.0 mg/kg/injection, schedule: Q01DX009 (ip), vehicle: saline with Tween-80): 97 % of control and 109 % of control
- T/C (endpoint: median survival time, dose: 200.0 mg/kg/injection, schedule: Q01DX009 (ip), vehicle: saline with Tween-80): 93 % of control and 97 % of control
- T/C (endpoint: median survival time, dose: 400.0 mg/kg/injection, schedule: Q01DX009 (ip), vehicle: saline with Tween-80): 99 % of control and 100 % of control

SMILES: Cc1cc(NS(=O)(=O)c2ccc(N=Nc3cc(N=Nc4ccc(S(=O)(=O)Nc5cc(C)nc(C)n5)cc4)c4c(NC(=O)C(Cl)Cl)cccc4c3OC(=O)C(Cl)Cl)cc2)nc(C)n1 (tested in a mixture with another compound)
- T/C (endpoint: median survival time, dose: 12.5 mg/kg/injection, schedule: Q01DX009 (ip), vehicle: suspension in saline): 103 % of control
- T/C (endpoint: median survival time, dose: 25.0 mg/kg/injection, schedule: Q01DX009 (ip), vehicle: suspension in saline): 103 % of control
- T/C (endpoint: median survival time, dose: 50.0 mg/kg/injection, schedule: Q01DX009 (ip), vehicle: suspension in saline): 98 % of control
- T/C (endpoint: median survival time, dose: 100.0 mg/kg/injection, schedule: Q01DX009 (ip), vehicle: suspension in saline): 104 % of control
- T/C (endpoint: median survival time, dose: 200.0 mg/kg/injection, schedule: Q01DX009 (ip), vehicle: suspension in saline): 104 % of control

SMILES: COc1c(C2OC(CO)C(O)C2O)nn(C)c1C(N)=O (stereo not given)
- T/C (endpoint: median survival time, dose: 48.5 mg/kg/injection, schedule: Q01DX005 (ip), vehicle: saline): 100 % of control
- T/C (endpoint: median survival time, dose: 97.0 mg/kg/injection, schedule: Q01DX005 (ip), vehicle: saline): 102 % of control
- T/C (endpoint: median survival time, dose: 193.9 mg/kg/injection, schedule: Q01DX005 (ip), vehicle: saline): 100 % of control

SMILES: CS(=O)(=O)OC[C@@H](O)[C@@H](O)COS(C)(=O)=O
- T/C [12]: 94 % of control and 102 % of control
- T/C (endpoint: mean survival time, dose: 200.0 mg/kg/injection, schedule: Q04DX003 (ip), vehicle: saline sonified): 100 % of control and 108 % of control
- T/C (endpoint: mean survival time, dose: 400.0 mg/kg/injection, schedule: Q04DX003 (ip), vehicle: saline sonified): 97 % of control and 100 % of control

SMILES: CC1=Cc2ccc(C)cc2C(=O)C1=O
- T/C (endpoint: mean survival time, dose: 1.56 mg/kg/injection, schedule: Q04DX002 (ip), vehicle: saline with Tween-80): 117 % of control
- T/C (endpoint: mean survival time, dose: 3.13 mg/kg/injection, schedule: Q04DX002 (ip), vehicle: saline with Tween-80): 106 % of control

SMILES: O=c1[nH]cc(F)c(=O)n1-c1ccco1
- T/C [7]: 111 % of control
- T/C [8]: 166 % of control

SMILES: CC1(C)C(=O)OC(n2ccc(=O)[nH]c2=O)C1=O (stereo not given)
- T/C (endpoint: median survival time, dose: 12.5 mg/kg/injection, schedule: Q01DX005 (ip), vehicle: saline): 103 % of control
- T/C (endpoint: median survival time, dose: 25.0 mg/kg/injection, schedule: Q01DX005 (ip), vehicle: saline): 103 % of control
- T/C (endpoint: median survival time, dose: 50.0 mg/kg/injection, schedule: Q01DX005 (ip), vehicle: saline): 101 % of control
- T/C (endpoint: median survival time, dose: 100.0 mg/kg/injection, schedule: Q01DX005 (ip), vehicle: saline): 103 % of control
- T/C (endpoint: median survival time, dose: 200.0 mg/kg/injection, schedule: Q01DX005 (ip), vehicle: saline): 103 % of control

SMILES: CCOC(=O)NC(O)C(Cl)(Cl)Cl (stereo not given)
- T/C [11]: 97 % of control
- T/C [13]: 106 % of control
- T/C (endpoint: mean survival time, dose: 400.0 mg/kg/injection, schedule: Q01DX009 (ip), vehicle: saline with Tween-80): 112 % of control

SMILES: O=C(O)c1ccccc1C(=O)Nc1cc(C(F)(F)F)ccc1Cl
- T/C [11]: 104 % of control
- T/C [7]: 105 % of control
- T/C [13]: 96 % of control
- T/C [8]: 105 % of control
- T/C [9]: 111 % of control

SMILES: Cc1cc2cc3cc(C)c(N)cc3nc2cc1N
- T/C (endpoint: mean survival time, dose: 3.12 mg/kg/injection, schedule: Q01DX009 (ip), vehicle: saline with Tween-80): 103 % of control and 106 % of control
- T/C (endpoint: mean survival time, dose: 6.25 mg/kg/injection, schedule: Q01DX009 (ip), vehicle: saline with Tween-80): 101 % of control and 107 % of control
- T/C (endpoint: mean survival time, dose: 12.5 mg/kg/injection, schedule: Q01DX009 (ip), vehicle: saline with Tween-80): 106 % of control
- T/C (endpoint: mean survival time, dose: 25.0 mg/kg/injection, schedule: Q01DX009 (ip), vehicle: saline with Tween-80): 98 % of control and 106 % of control
- T/C [10]: 86 % of control and 97 % of control
- T/C [11]: 92 % of control

SMILES: CCOC(=O)CN1C(=O)C(Cl)=C(Cl)C1=O
- T/C [1]: 98 % of control

SMILES: C[N+]12CCC34C5=CC(=O)C(=O)C=C5[N+]5(C)C(=O)CC6OCC=C(C1)C(CC32)C6C45 (stereo not given)
- T/C (endpoint: mean survival time, dose: 75.0 mg/kg/injection, schedule: Q01DX001 (ip), vehicle: saline): 106 % of control

SMILES: CCCCCOP(N)(=O)OCCCCC
- T/C [4]: 88 % of control
- T/C [5]: 92 % of control
- T/C [6]: 100 % of control

SMILES: NCCNC(=O)c1ccccc1
- T/C [3]: 103 % of control
- T/C (endpoint: mean survival time, dose: 200.0 mg/kg/injection, schedule: Q04DX003 (ip), vehicle: saline): 101 % of control
- T/C (endpoint: mean survival time, dose: 400.0 mg/kg/injection, schedule: Q04DX003 (ip), vehicle: saline): 100 % of control

SMILES: Cc1noc2nccnc12
- T/C [10]: 103 % of control
- T/C [11]: 101 % of control
- T/C [7]: 94 % of control

SMILES: Cc1nn(-c2ccccc2)c2[nH]cnc(=S)c12
- T/C (endpoint: mean survival time, dose: 12.5 mg/kg/injection, schedule: Q01DX005 (ip), vehicle: other): 86 % of control
- T/C (endpoint: mean survival time, dose: 25.0 mg/kg/injection, schedule: Q01DX005 (ip), vehicle: other): 91 % of control
- T/C (endpoint: mean survival time, dose: 50.0 mg/kg/injection, schedule: Q01DX005 (ip), vehicle: other): 92 % of control
- T/C (endpoint: mean survival time, dose: 100.0 mg/kg/injection, schedule: Q01DX005 (ip), vehicle: other): 97 % of control
- T/C (endpoint: mean survival time, dose: 200.0 mg/kg/injection, schedule: Q01DX005 (ip), vehicle: other): 93 % of control

SMILES: CCOC1OC(C(COC(C)=O)OC(C)=O)C(OC(C)=O)C(OC(C)=O)C1OC(C)=O (stereo not given)
- T/C (endpoint: mean survival time, dose: 100.0 mg/kg/injection, schedule: Q01DX001 (ip), vehicle: saline with Tween-80): 104 % of control
- T/C (endpoint: mean survival time, dose: 200.0 mg/kg/injection, schedule: Q01DX001 (ip), vehicle: saline with Tween-80): 96 % of control
- T/C (endpoint: mean survival time, dose: 400.0 mg/kg/injection, schedule: Q01DX001 (ip), vehicle: saline with Tween-80): 101 % of control

SMILES: CS(=O)(=O)Nc1ccc(C(=O)CCN2CCCCCC2)cc1
- T/C (endpoint: median survival time, dose: 25.0 mg/kg/injection, schedule: Q01DX009 (ip), vehicle: saline): 98 % of control
- T/C (endpoint: median survival time, dose: 50.0 mg/kg/injection, schedule: Q01DX009 (ip), vehicle: saline): 101 % of control
- T/C (endpoint: median survival time, dose: 100.0 mg/kg/injection, schedule: Q01DX009 (ip), vehicle: saline): 98 % of control

SMILES: COc1cc2cccnc2c2[nH]cc(C(=O)O)c(=O)c12
- T/C (endpoint: mean survival time, dose: 100.0 mg/kg/injection, schedule: Q01DX001 (ip), vehicle: saline): 107 % of control
- T/C [11]: 97 % of control
- T/C (endpoint: mean survival time, dose: 200.0 mg/kg/injection, schedule: Q01DX001 (ip), vehicle: saline): 100 % of control
- T/C (endpoint: mean survival time, dose: 400.0 mg/kg/injection, schedule: Q01DX001 (ip), vehicle: saline): 97 % of control
